Measurements taken from the supplement of paper PMC10132981, “Formate overflow drives toxic folate trapping in MTHFD1 inhibited cancer cells” (Nature Metabolism, 2023).
± gives the standard deviation of the averaged measurements.

Test system: SW620
Assay: cell viability relative to vehicle (resazurin, 96 h); higher = more viable
Method: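 SW620 WT or MTHFD2-/- cells were treated for 96 h with a compound dilution series (log10 M) in RPMI with normal or dialysed FBS. Viability was read by resazurin and is given as % of vehicle.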

Cc1c(N2CCN(C)[C@@H](C)C2)ccc2c3c(c(=O)oc12)CN(C(=O)c1ccc(NS(C)(=O)=O)c(OC(F)(F)F)c1)CC3
Conditions | cell viability [%]
log10 compound concentration (M): -5, supplement / serum: 50μM Hypoxanthine, base medium: RPMI + dialysed FBS | 59.7 ± 4.3
log10 compound concentration (M): -5, supplement / serum: 50μM Thymidine + 50μM Hypoxanthine, base medium: RPMI + dialysed FBS | 79 ± 23
log10 compound concentration (M): -5, supplement / serum: 50μMThymidine, base medium: RPMI + dialysed FBS | 13 ± 4.2
log10 compound concentration (M): -5, supplement / serum: No metabolite, base medium: RPMI + dialysed FBS | 11 ± 1.3
log10 compound concentration (M): -5, supplement / serum: RPMI + Dialyzed FBS + 50μM Hypoxanthine, base medium: RPMI-1640 | 59.7 ± 4.3
log10 compound concentration (M): -5, supplement / serum: RPMI + Dialyzed FBS, base medium: RPMI-1640 | 11 ± 1.3
log10 compound concentration (M): -5, supplement / serum: RPMI + Normal FBS, base medium: RPMI-1640 | 78.9 ± 37
log10 compound concentration (M): -5.47712, supplement / serum: 50μM Hypoxanthine, base medium: RPMI + dialysed FBS | 73.8 ± 15
log10 compound concentration (M): -5.47712, supplement / serum: 50μM Thymidine + 50μM Hypoxanthine, base medium: RPMI + dialysed FBS | 87.3 ± 20
log10 compound concentration (M): -5.47712, supplement / serum: 50μMThymidine, base medium: RPMI + dialysed FBS | 16.4 ± 0.45
log10 compound concentration (M): -5.47712, supplement / serum: No metabolite, base medium: RPMI + dialysed FBS | 16.8 ± 2.8
log10 compound concentration (M): -5.47712, supplement / serum: RPMI + Dialyzed FBS + 50μM Hypoxanthine, base medium: RPMI-1640 | 73.8 ± 15
log10 compound concentration (M): -5.47712, supplement / serum: RPMI + Dialyzed FBS, base medium: RPMI-1640 | 16.8 ± 2.8
log10 compound concentration (M): -5.47712, supplement / serum: RPMI + Normal FBS, base medium: RPMI-1640 | 59.76 ± 0.29
log10 compound concentration (M): -5.95424, supplement / serum: 50μM Hypoxanthine, base medium: RPMI + dialysed FBS | 79.2 ± 26
log10 compound concentration (M): -5.95424, supplement / serum: 50μM Thymidine + 50μM Hypoxanthine, base medium: RPMI + dialysed FBS | 82.2 ± 17
log10 compound concentration (M): -5.95424, supplement / serum: 50μMThymidine, base medium: RPMI + dialysed FBS | 37.8 ± 3.8
log10 compound concentration (M): -5.95424, supplement / serum: No metabolite, base medium: RPMI + dialysed FBS | 37.9 ± 1.5
log10 compound concentration (M): -5.95424, supplement / serum: RPMI + Dialyzed FBS + 50μM Hypoxanthine, base medium: RPMI-1640 | 79.2 ± 26
log10 compound concentration (M): -5.95424, supplement / serum: RPMI + Dialyzed FBS, base medium: RPMI-1640 | 37.9 ± 1.5
log10 compound concentration (M): -5.95424, supplement / serum: RPMI + Normal FBS, base medium: RPMI-1640 | 66.4 ± 4.6
log10 compound concentration (M): -6.43136, supplement / serum: 50μM Hypoxanthine, base medium: RPMI + dialysed FBS | 78.9 ± 3.7
log10 compound concentration (M): -6.43136, supplement / serum: 50μM Thymidine + 50μM Hypoxanthine, base medium: RPMI + dialysed FBS | 89.1 ± 13
log10 compound concentration (M): -6.43136, supplement / serum: 50μMThymidine, base medium: RPMI + dialysed FBS | 64.5 ± 0.92
log10 compound concentration (M): -6.43136, supplement / serum: No metabolite, base medium: RPMI + dialysed FBS | 67.9 ± 0.74
log10 compound concentration (M): -6.43136, supplement / serum: RPMI + Dialyzed FBS + 50μM Hypoxanthine, base medium: RPMI-1640 | 78.9 ± 3.7
log10 compound concentration (M): -6.43136, supplement / serum: RPMI + Dialyzed FBS, base medium: RPMI-1640 | 67.9 ± 0.74
log10 compound concentration (M): -6.43136, supplement / serum: RPMI + Normal FBS, base medium: RPMI-1640 | 74.7 ± 1.9
log10 compound concentration (M): -6.90849, supplement / serum: 50μM Hypoxanthine, base medium: RPMI + dialysed FBS | 85.8 ± 9.7
log10 compound concentration (M): -6.90849, supplement / serum: 50μM Thymidine + 50μM Hypoxanthine, base medium: RPMI + dialysed FBS | 72.8 ± 5.9
log10 compound concentration (M): -6.90849, supplement / serum: 50μMThymidine, base medium: RPMI + dialysed FBS | 72.2 ± 4.4
log10 compound concentration (M): -6.90849, supplement / serum: No metabolite, base medium: RPMI + dialysed FBS | 84.5 ± 21
log10 compound concentration (M): -6.90849, supplement / serum: RPMI + Dialyzed FBS + 50μM Hypoxanthine, base medium: RPMI-1640 | 85.8 ± 9.7
log10 compound concentration (M): -6.90849, supplement / serum: RPMI + Dialyzed FBS, base medium: RPMI-1640 | 84.5 ± 21
log10 compound concentration (M): -6.90849, supplement / serum: RPMI + Normal FBS, base medium: RPMI-1640 | 76.6 ± 3.5
log10 compound concentration (M): -7.38561, supplement / serum: 50μM Hypoxanthine, base medium: RPMI + dialysed FBS | 68.9 ± 5.7
log10 compound concentration (M): -7.38561, supplement / serum: 50μM Thymidine + 50μM Hypoxanthine, base medium: RPMI + dialysed FBS | 79.5 ± 3.7
log10 compound concentration (M): -7.38561, supplement / serum: 50μMThymidine, base medium: RPMI + dialysed FBS | 65.2 ± 1.4
log10 compound concentration (M): -7.38561, supplement / serum: No metabolite, base medium: RPMI + dialysed FBS | 66.8 ± 1.8
log10 compound concentration (M): -7.38561, supplement / serum: RPMI + Dialyzed FBS + 50μM Hypoxanthine, base medium: RPMI-1640 | 68.9 ± 5.7
log10 compound concentration (M): -7.38561, supplement / serum: RPMI + Dialyzed FBS, base medium: RPMI-1640 | 66.8 ± 1.8
log10 compound concentration (M): -7.38561, supplement / serum: RPMI + Normal FBS, base medium: RPMI-1640 | 75 ± 9.2
log10 compound concentration (M): -7.86273, supplement / serum: 50μM Hypoxanthine, base medium: RPMI + dialysed FBS | 83.7 ± 13
log10 compound concentration (M): -7.86273, supplement / serum: 50μM Thymidine + 50μM Hypoxanthine, base medium: RPMI + dialysed FBS | 83.3 ± 4.1
log10 compound concentration (M): -7.86273, supplement / serum: 50μMThymidine, base medium: RPMI + dialysed FBS | 70.4 ± 4.7
log10 compound concentration (M): -7.86273, supplement / serum: No metabolite, base medium: RPMI + dialysed FBS | 75.1 ± 7.1
log10 compound concentration (M): -7.86273, supplement / serum: RPMI + Dialyzed FBS + 50μM Hypoxanthine, base medium: RPMI-1640 | 83.7 ± 13
log10 compound concentration (M): -7.86273, supplement / serum: RPMI + Dialyzed FBS, base medium: RPMI-1640 | 75.1 ± 7.1
log10 compound concentration (M): -7.86273, supplement / serum: RPMI + Normal FBS, base medium: RPMI-1640 | 73 ± 4.8
log10 compound concentration (M): -8.33985, supplement / serum: 50μM Hypoxanthine, base medium: RPMI + dialysed FBS | 84.3 ± 9
log10 compound concentration (M): -8.33985, supplement / serum: 50μM Thymidine + 50μM Hypoxanthine, base medium: RPMI + dialysed FBS | 76.1 ± 1.6
log10 compound concentration (M): -8.33985, supplement / serum: 50μMThymidine, base medium: RPMI + dialysed FBS | 78.4 ± 12
log10 compound concentration (M): -8.33985, supplement / serum: No metabolite, base medium: RPMI + dialysed FBS | 86.2 ± 1.2
log10 compound concentration (M): -8.33985, supplement / serum: RPMI + Dialyzed FBS + 50μM Hypoxanthine, base medium: RPMI-1640 | 84.3 ± 9
log10 compound concentration (M): -8.33985, supplement / serum: RPMI + Dialyzed FBS, base medium: RPMI-1640 | 86.2 ± 1.2
log10 compound concentration (M): -8.33985, supplement / serum: RPMI + Normal FBS, base medium: RPMI-1640 | 92 ± 1.2
log10 compound concentration (M): -8.81697, supplement / serum: 50μM Hypoxanthine, base medium: RPMI + dialysed FBS | 83.9 ± 23
log10 compound concentration (M): -8.81697, supplement / serum: 50μM Thymidine + 50μM Hypoxanthine, base medium: RPMI + dialysed FBS | 69.4 ± 6.6
log10 compound concentration (M): -8.81697, supplement / serum: 50μMThymidine, base medium: RPMI + dialysed FBS | 77.4 ± 7.6
log10 compound concentration (M): -8.81697, supplement / serum: No metabolite, base medium: RPMI + dialysed FBS | 70.8 ± 2.4
log10 compound concentration (M): -8.81697, supplement / serum: RPMI + Dialyzed FBS + 50μM Hypoxanthine, base medium: RPMI-1640 | 83.9 ± 23
log10 compound concentration (M): -8.81697, supplement / serum: RPMI + Dialyzed FBS, base medium: RPMI-1640 | 70.8 ± 2.4
log10 compound concentration (M): -8.81697, supplement / serum: RPMI + Normal FBS, base medium: RPMI-1640 | 75.5 ± 4.8
log10 compound concentration (M): -9.29409, supplement / serum: 50μM Hypoxanthine, base medium: RPMI + dialysed FBS | 77.29 ± 0.34
log10 compound concentration (M): -9.29409, supplement / serum: 50μM Thymidine + 50μM Hypoxanthine, base medium: RPMI + dialysed FBS | 86.3 ± 14
log10 compound concentration (M): -9.29409, supplement / serum: 50μMThymidine, base medium: RPMI + dialysed FBS | 105 ± 6.9
log10 compound concentration (M): -9.29409, supplement / serum: No metabolite, base medium: RPMI + dialysed FBS | 84.9 ± 13
log10 compound concentration (M): -9.29409, supplement / serum: RPMI + Dialyzed FBS + 50μM Hypoxanthine, base medium: RPMI-1640 | 77.29 ± 0.34
log10 compound concentration (M): -9.29409, supplement / serum: RPMI + Dialyzed FBS, base medium: RPMI-1640 | 84.9 ± 13
log10 compound concentration (M): -9.29409, supplement / serum: RPMI + Normal FBS, base medium: RPMI-1640 | 77 ± 11
log10 compound concentration (M): -9.77121, supplement / serum: 50μM Hypoxanthine, base medium: RPMI + dialysed FBS | 85.8 ± 28
log10 compound concentration (M): -9.77121, supplement / serum: 50μM Thymidine + 50μM Hypoxanthine, base medium: RPMI + dialysed FBS | 86.4 ± 9.4
log10 compound concentration (M): -9.77121, supplement / serum: 50μMThymidine, base medium: RPMI + dialysed FBS | 84.3 ± 26
log10 compound concentration (M): -9.77121, supplement / serum: No metabolite, base medium: RPMI + dialysed FBS | 77 ± 17
log10 compound concentration (M): -9.77121, supplement / serum: RPMI + Dialyzed FBS + 50μM Hypoxanthine, base medium: RPMI-1640 | 85.8 ± 28
log10 compound concentration (M): -9.77121, supplement / serum: RPMI + Dialyzed FBS, base medium: RPMI-1640 | 77 ± 17
log10 compound concentration (M): -9.77121, supplement / serum: RPMI + Normal FBS, base medium: RPMI-1640 | 75.8 ± 12
